The source made the active and inactive calls. The calls are words filed in the database; no cut-off is given here.
Columns and labels:
[1] = Downregulation of SREBP-1c mRNA expression in human HepG2 cells at 10 uM pretreated with compound for 30 mins followed by T0901317 addition and measured after 12 hrs by RT-qPCR analysis relative to control; format: functional; conditions: time 12.5 hrs
[2] = Clearance in 16 hrs fasted ICR mouse at 2 mg/kg, iv measured upto 8 hrs by LC-MS/MS analysis; format: ADME, organism-based; conditions: in vivo
[3] = Tmax in 16 hrs fasted ICR mouse at 20 mg/kg, po measured upto 8 hrs by LC-MS/MS analysis; format: ADME, organism-based; conditions: in vivo
[4] = Metabolic stability in rat liver microsomes at 1 uM measured after 30 mins in presence of NADPH regeneration system by LC-MS/MS analysis; format: ADME, Microsome; conditions: read-out: Stability
[5] = AUC last in 16 hrs fasted ICR mouse at 20 mg/kg, po measured upto 8 hrs by LC-MS/MS analysis; format: ADME, organism-based; conditions: in vivo
CYP2D6 = CYP2D6 (Homo sapiens, UniProt P10635); test: Inhibition of CYP2D6 in human liver microsomes at 10 uM using dextromethorphan as substrate preincubated for 5 mins followed by NADPH generating system addition and measured after 15 mins relative to control; format: ADME, Microsome; conditions: probe dextromethorphan, time 20 min
Chain of CYP2D6 (P10635 whole entry): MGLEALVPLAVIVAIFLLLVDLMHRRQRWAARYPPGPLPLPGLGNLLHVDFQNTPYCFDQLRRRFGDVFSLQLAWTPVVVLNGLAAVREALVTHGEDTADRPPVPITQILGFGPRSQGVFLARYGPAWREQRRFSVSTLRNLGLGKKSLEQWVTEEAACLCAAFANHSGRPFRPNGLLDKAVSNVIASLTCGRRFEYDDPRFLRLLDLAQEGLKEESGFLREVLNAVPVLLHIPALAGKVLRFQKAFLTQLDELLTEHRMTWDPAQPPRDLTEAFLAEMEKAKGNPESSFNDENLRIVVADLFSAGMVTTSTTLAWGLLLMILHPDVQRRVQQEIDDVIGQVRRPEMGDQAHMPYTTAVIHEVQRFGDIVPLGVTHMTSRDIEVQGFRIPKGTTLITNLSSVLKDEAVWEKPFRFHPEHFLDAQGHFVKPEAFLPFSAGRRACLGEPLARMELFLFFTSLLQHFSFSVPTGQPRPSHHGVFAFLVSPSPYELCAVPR

HepG2 [6] = test: Downregulation of ACACA mRNA level in human HepG2 cells at 10 uM pretreated with compound for 30 mins followed by […] addition and measured after 12 hrs by RT-qPCR analysis; format: functional, cell-based; conditions: time 12.5 hrs
[7] = target: NAD-dependent protein deacylase sirtuin-6 (Homo sapiens) (UniProt Q8N6T7); test: Activation of recombinant SIRT6 (unknown origin) using fluoro-substrate peptide as substrate at 2.5 to 400 uM by fluorescence based analysis; conditions: filed as activator, dose 2.5-400 µM
Chain of NAD-dependent protein deacylase sirtuin-6 (Homo sapiens) (Q8N6T7 whole entry): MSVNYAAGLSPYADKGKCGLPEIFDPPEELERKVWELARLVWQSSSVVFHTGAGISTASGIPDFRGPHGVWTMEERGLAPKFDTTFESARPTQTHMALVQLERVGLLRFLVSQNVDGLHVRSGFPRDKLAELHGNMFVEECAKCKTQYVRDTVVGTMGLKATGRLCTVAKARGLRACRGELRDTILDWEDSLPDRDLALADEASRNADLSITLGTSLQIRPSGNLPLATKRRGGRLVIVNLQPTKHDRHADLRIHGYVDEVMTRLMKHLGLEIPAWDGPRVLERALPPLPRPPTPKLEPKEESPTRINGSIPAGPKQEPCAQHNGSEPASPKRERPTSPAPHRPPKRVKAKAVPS

[8] = Stability in mouse plasma measured after 120 mins by LC-MS/MS analysis; format: ADME, cell-free; conditions: read-out: Stability
[9] = target: T1, Oxysterols receptor LXR-alpha (Homo sapiens) (UniProt Q13133); test: Inhibition of LXRalpha in HEK293 cells expressing LXRE at 2.5 to 5 uM preincubated for 30 mins followed by T0901317 addition and measured after 24 hrs by Dual-glo luciferase assay; format: cell-based; conditions: dose 2.5-5 µM, time 24.5 hrs
T1 sequence (whole entry): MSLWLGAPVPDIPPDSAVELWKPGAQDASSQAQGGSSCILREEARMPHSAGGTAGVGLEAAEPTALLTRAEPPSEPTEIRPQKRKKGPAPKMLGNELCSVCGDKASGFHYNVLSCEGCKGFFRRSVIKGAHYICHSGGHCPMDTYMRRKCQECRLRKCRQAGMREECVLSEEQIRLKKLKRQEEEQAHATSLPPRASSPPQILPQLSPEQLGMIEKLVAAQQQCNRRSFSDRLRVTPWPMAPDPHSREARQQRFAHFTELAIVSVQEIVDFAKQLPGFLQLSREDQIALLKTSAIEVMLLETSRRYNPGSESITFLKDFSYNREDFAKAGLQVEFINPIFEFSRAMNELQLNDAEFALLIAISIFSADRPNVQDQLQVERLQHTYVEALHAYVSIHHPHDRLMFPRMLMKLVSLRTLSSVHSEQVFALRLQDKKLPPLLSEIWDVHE

[10] = target: T2, Sterol regulatory element-binding protein 1 (Homo sapiens) (UniProt P36956); test: Inhibition of SREBP-1c transcriptional activity in human HepG2 cells expressing LXRalpha/RXRalpha assessed as reduction in SRE-luciferase level pretreated with compound for 30 mins followed by T0901317 addition and measured after 12 hrs by Dual-Glo luciferase assay; format: cell-based; conditions: dose 2.5-5 µM, time 12.5 hrs
T2 sequence (whole entry): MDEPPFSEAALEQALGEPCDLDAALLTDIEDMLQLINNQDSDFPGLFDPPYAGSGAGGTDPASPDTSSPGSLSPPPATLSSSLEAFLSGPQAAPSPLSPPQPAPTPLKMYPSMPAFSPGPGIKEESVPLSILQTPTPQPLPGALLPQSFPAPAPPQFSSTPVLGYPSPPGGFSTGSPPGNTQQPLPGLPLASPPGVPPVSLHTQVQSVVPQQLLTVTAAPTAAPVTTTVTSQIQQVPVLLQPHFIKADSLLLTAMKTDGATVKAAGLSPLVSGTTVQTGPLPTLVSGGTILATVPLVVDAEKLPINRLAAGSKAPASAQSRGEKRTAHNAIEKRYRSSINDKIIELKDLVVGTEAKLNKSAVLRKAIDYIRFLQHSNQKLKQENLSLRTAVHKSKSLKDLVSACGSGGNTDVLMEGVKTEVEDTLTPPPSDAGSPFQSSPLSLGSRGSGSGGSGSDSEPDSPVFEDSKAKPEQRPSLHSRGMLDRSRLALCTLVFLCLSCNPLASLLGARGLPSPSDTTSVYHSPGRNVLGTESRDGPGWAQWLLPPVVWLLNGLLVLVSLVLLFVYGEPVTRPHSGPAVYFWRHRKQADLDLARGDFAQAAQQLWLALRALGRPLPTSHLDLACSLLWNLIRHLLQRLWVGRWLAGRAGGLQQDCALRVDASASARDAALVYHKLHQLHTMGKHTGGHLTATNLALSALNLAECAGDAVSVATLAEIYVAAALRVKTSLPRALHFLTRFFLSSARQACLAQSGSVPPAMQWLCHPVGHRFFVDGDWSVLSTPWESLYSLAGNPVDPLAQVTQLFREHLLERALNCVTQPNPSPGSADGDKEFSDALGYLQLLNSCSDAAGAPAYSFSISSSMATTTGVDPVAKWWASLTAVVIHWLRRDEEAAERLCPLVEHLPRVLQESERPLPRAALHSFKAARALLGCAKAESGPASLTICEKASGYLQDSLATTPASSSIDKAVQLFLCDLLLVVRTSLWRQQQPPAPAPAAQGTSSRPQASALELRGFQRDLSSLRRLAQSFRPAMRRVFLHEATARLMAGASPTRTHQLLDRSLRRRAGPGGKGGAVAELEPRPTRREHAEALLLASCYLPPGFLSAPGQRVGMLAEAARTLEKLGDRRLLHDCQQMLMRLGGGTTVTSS

Mus musculus = test: Anti-lipogenic activity against high fat died induced male C57BL/6J mouse obesity model assessed as downregulation of Cxcl10 mRNA level at 15 mg/kg, po administered three times per week and measured after 5 weeks by RT-qPCT analysis; format: functional, organism-based
HepG2 [11] = test: Downregulation of ACLY gene expression in human HepG2 cells in presence of T0901317 by RNA sequencing analysis; format: functional, cell-based
HepG2 [12] = test: (§1) Downregulation of SREBP-1c mRNA expression in human HepG2 cells pretreated with compound for 30 mins followed by T0901317 addition and measured after 12 hrs by RT-qPCR analysis; format: functional, cell-based; conditions: dose 0.01-100 µM, time 12.5 hrs
[13] = as §1; format: functional, cell-based
Hepatocyte [14] = test: Lipid lowering effect on palmitic acid induced lipid accumulation in mouse Hepatocyte at 5 uM incubated for 30 mins by Oil red O staining based analysis; format: functional, cell-based
Hepatocyte [15] = test: Effect on Ppara gene expression in mouse hepatocyte; format: functional, cell-based
HepG2 [16] = test: Downregulation of SREBP-1c expression level in nucleus of human HepG2 cells at 10 uM pretreated with compound for 30 mins followed by GW3965 addition and measured after 12 hrs by immunoblot analysis; format: functional, cell-based; conditions: time 12.5 hrs

clearance [2]: 0.8 L/h/kg
Tmax [3]: 18 min
remaining at 0.5 h, 1 µM [4]: 32.5%
AUC(0-t) at 8 h [5]: 2.82 µg·h/mL
inhibition at 0.25 h, 10 µM (CYP2D6): > 100%
Activity [7]: Active
remaining at 2 h [8]: > 100%
inhibition [9]: Active
inhibition [10]: Dose-dependent-effect
IC50 [13]: 2.5 µM
Structure (SMILES): COc1ccccc1Nc1c(N[C@H]2CC[C@H](Oc3ccc([N+](=O)[O-])cc3)CC2)c(=O)c1=O
Activity [1]: 16.2%
Activity (HepG2 [6]): Active
Activity (Mus musculus): Active
Activity (HepG2 [11]): Active
Activity (HepG2 [12]): Dose-dependent-effect
Activity (Hepatocyte [14]): Active
Activity (Hepatocyte [15]): inactive
Activity (HepG2 [16]): Active
